# Assay results: patent publication US20210267239A1, “Process for Sanitizing and Preserving Foodstuffs and Beverages” (LANXESS Deutschland GmbH, priority 2018, published 2021)
# Legend:
# Assay type in all cases: cell-based
# Candida glabrata = experiment: MIC determination in RPMI-1640 growth medium (CLSI M27-A3); conditions: Nakaseomyces glabratus, 168 h, growth medium RPMI-1640, seeding 1000 cfu/ml, after one week, read-out: MIC (mg/l) after one week
# Protocol: (§1) After one week, a proportion of the medium was tested for the presence of microorganisms and these tests were used to determine the MIC (minimum inhibitory concentration). Individual test substances: natamycin, mycosamine Test microbe: Candida glabrata Substrate: growth medium Microbial seeding per ml of substrate: 1000 cfu/ml Synergism was ascertained according to the method described in Kull, F. C. et al.; Mixtures of quaternary ammonium compounds and long-chain fatty acids as antifungal agents. Applied Microbiology, 9, 538-541, 1961. The following relationships apply: QA/Qa+QB/Qb=SI Qa=concentration of substance A which is the MIC Qb=concentration of substance B which is the MIC QA=concentration of substance A in the concentration of A/B at which microbial growth is suppressed QB=concentration of substance B in the concentration of A/B at which microbial growth is suppressed SI=synergistic index […]
# [1] = tested on: mixture of Saccharomyces cerevisiae, Zygosaccharomyces bailii, Penicillium carneum and Trichoderma virens; experiment: MIC determination in contaminated iced tea, non-carbonated; conditions: 168 h, mixed test microbes, 250 cfu/ml each, after one week, read-out: MIC (mg/l) after one week
# Protocol: as §1, with “mixture of Saccharomyces cerevisiae, Zygosaccharomyces bailii, Penicillium carneum and Trichoderma virens” for “Candida glabrata”, “iced tea, non-carbonated” for “growth medium”, “250” for “1000”, “cfu/ml each of the test microbes listed above” for “cfu/ml”
# Candida albicans = experiment: MIC determination in RPMI-1640 growth medium (CLSI M27-A3); conditions: 168 h, growth medium RPMI-1640, seeding 1000 cfu/ml, after one week, read-out: MIC (mg/l) after one week
# Protocol: as §1, with “of the growth medium was” for “of the medium was”, “microbe: Candida albicans Substrate: growth” for “microbe: Candida glabrata Substrate: growth”
# Candida krusei = experiment: as above; conditions: Pichia kudriavzevii, 168 h, growth medium RPMI-1640, seeding 1000 cfu/ml, after one week, read-out: MIC (mg/l) after one week
# Protocol: as §1, with “krusei” for “glabrata”
MIC [1],Compound,MIC (Candida glabrata),MIC (Candida albicans),MIC (Candida krusei)
4 mg/L,"C[C@@H]1C/C=C/C=C/C=C/C=C/[C@H](O[C@@H]2O[C@H](C)[C@@H](O)[C@H](N)[C@@H]2O)C[C@@H]2O[C@](O)(C[C@@H](O)C[C@H]3O[C@@H]3/C=C/C(=O)O1)C[C@H](O)[C@H]2C(=O)O [Natamycin, (8E,14E,16E,18E,20E)-(1R,3S,5R,7R,12R,22R,24S,25R,26S)-22-(3-amino-3,6-dideoxy-25-D-mannopyranosyloxy)-1,3,26-trihydroxy-12-methyl-10-oxo-6,11,28-trioxatricyclo[22.3.1.05,7]octacosa-8,14,16,18,20-pentaene-25-carboxylic acid]",1 mg/L,1 mg/L,2 mg/L
0.75 mg/L,"C[C@@H](O)[C@@H](O)[C@H](N)[C@H](O)C=O [Mycosamine, 3-amino-3,6-dideoxymannose]",0.5 mg/L,32 mg/L,2 mg/L
